Where “and” joins values, the source holds several entries; their conditions need not be identical. Equal values may be shown once. Read-outs that look alike come from different tables or passages of the source. *1 amine or outer side, *2 acyl side, *3 side chain or, on linkers, in order; H or OH if unused. Where a SMILES comes first, the peptide text is derived from it. Side-chain parts run from the residue outwards. The star is where a group is joined. C18 diacid = O=C(O)CCCCCCCCCCCCCCCCC(=O)*; γGlu = O=C(O)[C@H](CCC(=O)[*:2])N[*:1]; AEEA = NCCOCCOCC(=O)O
Assays:
Format in all cases: cell-based
human GIPR = biological target: T1, human GIPR (Homo sapiens, UniProt P48546); assay: cAMP assay (HitHunter) in transiently transfected COS-7 cells expressing human GIPR
T1 construct: host or cells: COS-7
T1 sequence (P48546 22-466): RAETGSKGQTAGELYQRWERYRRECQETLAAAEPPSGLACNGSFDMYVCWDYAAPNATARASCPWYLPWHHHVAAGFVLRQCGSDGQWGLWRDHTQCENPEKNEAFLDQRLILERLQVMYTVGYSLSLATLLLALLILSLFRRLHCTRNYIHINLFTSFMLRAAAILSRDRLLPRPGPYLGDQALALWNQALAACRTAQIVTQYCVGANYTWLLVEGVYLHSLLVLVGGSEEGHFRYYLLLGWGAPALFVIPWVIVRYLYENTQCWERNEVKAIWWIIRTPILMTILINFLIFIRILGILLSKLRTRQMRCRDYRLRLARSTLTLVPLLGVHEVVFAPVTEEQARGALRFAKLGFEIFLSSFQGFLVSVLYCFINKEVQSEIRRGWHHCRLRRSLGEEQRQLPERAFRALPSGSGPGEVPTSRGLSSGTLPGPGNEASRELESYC

human GLP-2R = biological target: T2, human GLP-2R (Homo sapiens, UniProt O95838); assay: cAMP assay (HitHunter) in transiently transfected COS-7 cells expressing human GLP-2R
T2 construct: host or cells: COS-7
T2 sequence (O95838 1-553): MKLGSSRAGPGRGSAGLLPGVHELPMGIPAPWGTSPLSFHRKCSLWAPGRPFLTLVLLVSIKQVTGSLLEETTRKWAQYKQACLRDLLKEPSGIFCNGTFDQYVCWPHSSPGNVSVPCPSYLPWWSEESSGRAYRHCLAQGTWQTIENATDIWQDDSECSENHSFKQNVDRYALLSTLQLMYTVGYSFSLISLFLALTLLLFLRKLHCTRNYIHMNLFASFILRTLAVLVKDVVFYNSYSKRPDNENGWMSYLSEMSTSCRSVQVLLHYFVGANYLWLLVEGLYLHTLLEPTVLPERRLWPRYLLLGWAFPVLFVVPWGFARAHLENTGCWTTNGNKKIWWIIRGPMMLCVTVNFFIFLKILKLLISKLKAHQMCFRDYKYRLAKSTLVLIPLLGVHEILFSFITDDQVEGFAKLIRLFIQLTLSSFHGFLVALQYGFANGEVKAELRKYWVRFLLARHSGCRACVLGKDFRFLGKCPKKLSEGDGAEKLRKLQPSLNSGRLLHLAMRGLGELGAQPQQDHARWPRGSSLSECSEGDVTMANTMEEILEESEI

human GLP-1R = biological target: T3, human GLP-1R (Homo sapiens, UniProt P43220); assay: cAMP assay (HitHunter) in transiently transfected COS-7 cells expressing human GLP-1R
T3 construct: host or cells: COS-7

[1] = biological target: human glucagon receptor (GCGR) (Homo sapiens, UniProt P47871); assay: Gs activation measured as cAMP accumulation on human glucagon receptor (FIG. 1 radar plot); conditions: read-out: −p Log EC50 on human glucagon receptor (GCGR) (converted)
Source text: Here, the compounds 20, 21, 22, 28, 30, 31,32, 33, 34, 35 are shown in terms of their potencies in Gs activation, measured as CAMP accumulation, depicted in a radar plot. The numbers refer to −p Log EC50 values. […] The outer rings correspond to higher potencies, the inner rings correspond to lower potencies.

human SNAP-tagged GIPR = biological target: T4, human SNAP-tagged GIPR (Homo sapiens, UniProt P48546); assay: Receptor internalization assay, HEK293A cells expressing human SNAP-tagged GIPR
T4 construct: host or cells: HEK293A
T4 sequence (P48546 22-466): T1 sequence (P48546 22-466)

human SNAP-tagged GLP-1R = biological target: T5, human SNAP-tagged GLP-1R (Homo sapiens, UniProt P43220); assay: Receptor internalization assay, HEK293A cells expressing human SNAP-tagged GLP-1R; conditions: for Absolute hGLP-1R internalization (AUC): AUC of sigmoid curves up to 1 μM, 60 minutes at 37° C.; for Relative hGLP-1R internalization (%): relative to hGLP-1 = 100
T5 construct: expressed in transfected cells; host or cells: HEK293A

human SNP-tagged GLP-2R = biological target: T6, human SNP-tagged GLP-2R (Homo sapiens, UniProt O95838); assay: Receptor internalization assay, HEK293A cells expressing human SNAP-tagged GLP-2R; conditions: for Absolute hGLP-2R internalization (AUC): AUC of sigmoid curves up to 1 μM, 60 minutes at 37° C.; for Relative hGLP-2R internalization (%): relative to native ligand = 100
T6 construct: expressed in transfected cells; host or cells: HEK293A
T6 sequence (O95838 1-553): T2 sequence (O95838 1-553)

[2] = COS-7, read-out: Efficacy GIPR (Emax)
[3] = COS-7, read-out: Efficacy GLP-2R (Emax)
[4] = COS-7, read-out: Efficacy GLP-1R (Emax)

Sequence of human glucagon receptor (GCGR) (P47871 26-477): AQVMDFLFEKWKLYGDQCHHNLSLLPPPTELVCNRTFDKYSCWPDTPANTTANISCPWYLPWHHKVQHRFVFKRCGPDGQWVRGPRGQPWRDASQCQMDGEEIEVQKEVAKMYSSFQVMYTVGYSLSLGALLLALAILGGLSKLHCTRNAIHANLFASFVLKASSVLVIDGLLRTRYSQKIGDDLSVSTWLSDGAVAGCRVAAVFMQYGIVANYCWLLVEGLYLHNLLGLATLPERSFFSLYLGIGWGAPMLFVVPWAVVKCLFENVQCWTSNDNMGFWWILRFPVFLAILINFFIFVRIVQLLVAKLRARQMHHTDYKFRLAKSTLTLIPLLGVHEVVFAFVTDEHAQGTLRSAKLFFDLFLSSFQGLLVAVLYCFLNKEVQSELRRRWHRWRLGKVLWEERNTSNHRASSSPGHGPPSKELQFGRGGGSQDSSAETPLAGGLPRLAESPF
T3 sequence (P43220 24-463): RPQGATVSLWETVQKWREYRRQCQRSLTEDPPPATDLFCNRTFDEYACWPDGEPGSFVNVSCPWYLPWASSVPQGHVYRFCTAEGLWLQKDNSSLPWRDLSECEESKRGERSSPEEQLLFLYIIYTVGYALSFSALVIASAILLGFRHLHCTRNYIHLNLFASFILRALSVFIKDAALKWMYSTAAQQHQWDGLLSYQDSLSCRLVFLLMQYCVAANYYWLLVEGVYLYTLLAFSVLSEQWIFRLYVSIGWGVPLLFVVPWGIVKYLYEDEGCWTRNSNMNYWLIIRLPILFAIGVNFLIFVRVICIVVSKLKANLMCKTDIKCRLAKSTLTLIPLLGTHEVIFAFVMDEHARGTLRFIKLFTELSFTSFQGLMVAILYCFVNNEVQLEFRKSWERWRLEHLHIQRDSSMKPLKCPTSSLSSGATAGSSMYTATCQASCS
T5 sequence (P43220 24-463): as above

| SMILES | Emax (human GIPR; [2]) | Emax (human GLP-2R; [3]) | Emax (human GLP-1R; [4]) | EC50 [1] | Absolute hGIPR internalization (AUC) (human SNAP-tagged GIPR) | Relative hGIPR internalization (%) (human SNAP-tagged GIPR) | Absolute hGLP-1R internalization (AUC) (human SNAP-tagged GLP-1R) | Relative hGLP-1R internalization (%) (human SNAP-tagged GLP-1R) | Absolute hGLP-2R internalization (AUC) (human SNP-tagged GLP-2R) | Relative hGLP-2R internalization (%) (human SNP-tagged GLP-2R) | Emax (human GIPR; COS-7, normalized to highest concentration of the endogenous ligand, read-out: Efficacy GIPR (Emax)) | loss in GIP potency in cAMP (human GIPR; fatty acid in position 17 compared to position 16 (Compound 30)) | Emax (human GLP-2R; COS-7, normalized to highest concentration of the endogenous ligand, read-out: Efficacy GLP-2R (Emax)) | EC50 (human GLP-2R; cAMP, COS-7 cells, human GLP-2R, read-out: EC50 (nM) GLP-2R) | Emax (human GLP-1R; COS-7, normalized to highest concentration of the endogenous ligand, read-out: Efficacy GLP-1R (Emax)) | Absolute hGIPR internalization (AUC) (human SNAP-tagged GIPR; AUC of sigmoid curves up to 1 μM, 60 minutes at 37° C.) | Relative hGIPR internalization (%) (human SNAP-tagged GIPR; relative to hGIP 1-42 = 100) |
| --- | --- | --- | --- | --- | --- | --- | --- | --- | --- | --- | --- | --- | --- | --- | --- | --- | --- |
| CC[C@H](C)[C@H](NC(=O)[C@H](Cc1ccccc1)NC(=O)[C@H](CC(=O)O)NC(=O)[C@H](CCCNC(=N)N)NC(=O)[C@H](C)NC(=O)[C@H](C)NC(=O)[C@H](CC(C)C)NC(=O)[C@H](CC(N)=O)NC(=O)[C@H](CC(=O)O)NC(=O)[C@H](CC(C)C)NC(=O)C(C)(C)NC(=O)[C@@H](NC(=O)[C@H](CO)NC(=O)[C@H](Cc1ccc(O)cc1)NC(=O)[C@H](CC(=O)O)NC(=O)[C@H](CO)NC(=O)[C@@H](NC(=O)[C@H](Cc1ccccc1)NC(=O)[C@@H](NC(=O)CNC(=O)[C@H](CC(=O)O)NC(=O)[C@H](C)NC(=O)[C@@H](N)Cc1c[nH]cn1)[C@@H](C)O)[C@@H](C)CC)[C@@H](C)O)C(=O)N[C@@H](CC(N)=O)C(=O)N[C@@H](Cc1c[nH]c2ccccc12)C(=O)N[C@@H](CC(C)C)C(=O)N[C@H](C(=O)N[C@@H](CCC(N)=O)C(=O)N[C@H](C(=O)N[C@@H](CCCCN)C(=O)NCC(=O)N[C@@H](CCCCN)C(=O)N[C@@H](CCCCN)C(=O)N[C@@H](CCCCNC(=O)COCCOCCNC(=O)COCCOCCNC(=O)CC[C@H](NC(=O)CCCCCCCCCCCCCCCCC(=O)O)C(=O)O)C(=O)O)[C@@H](C)O)[C@@H](C)CC [Compound 35] | 99% | 93% | 92% | > 100 nM | 14.3 | 39% and 38% | 2.0 | 2.4% | 7.6 | 15.7% |  |  |  |  |  |  |  |
| CC[C@H](C)[C@H](NC(=O)[C@H](Cc1ccccc1)NC(=O)[C@H](CC(=O)O)NC(=O)[C@H](CCCNC(=N)N)NC(=O)[C@H](C)NC(=O)[C@H](C)NC(=O)[C@H](CC(C)C)NC(=O)[C@H](CC(N)=O)NC(=O)[C@H](CC(=O)O)NC(=O)[C@H](CC(C)C)NC(=O)[C@@H](NC(=O)[C@@H](NC(=O)[C@H](CO)NC(=O)[C@H](Cc1ccc(O)cc1)NC(=O)[C@H](CC(=O)O)NC(=O)[C@H](CO)NC(=O)[C@@H](NC(=O)[C@H](Cc1ccccc1)NC(=O)[C@@H](NC(=O)CNC(=O)[C@H](CC(=O)O)NC(=O)[C@H](C)NC(=O)[C@@H](N)Cc1c[nH]cn1)[C@@H](C)O)[C@@H](C)CC)[C@@H](C)O)[C@@H](C)CC)C(=O)N[C@@H](CC(N)=O)C(=O)N[C@@H](Cc1c[nH]c2ccccc12)C(=O)N[C@@H](CC(C)C)C(=O)N[C@H](C(=O)N[C@@H](CCC(N)=O)C(=O)N[C@H](C(=O)N[C@@H](CCCCN)C(=O)NCC(=O)N[C@@H](CCCCN)C(=O)N[C@@H](CCCCNC(=O)COCCOCCNC(=O)COCCOCCNC(=O)CC[C@H](NC(=O)CCCCCCCCCCCCCCCCC(=O)O)C(=O)O)C(=O)O)[C@@H](C)O)[C@@H](C)CC [Compound 33] | 88% | 90% | 99% | > 100 nM | 15.8 | 43% | 6.4 | 7.7% | 6.4 | 13.2% |  |  |  |  |  |  |  |
| CC[C@H](C)[C@H](NC(=O)[C@H](Cc1ccccc1)NC(=O)[C@H](CC(=O)O)NC(=O)[C@H](CCCNC(=N)N)NC(=O)[C@H](C)NC(=O)[C@H](C)NC(=O)[C@H](CCCCNC(=O)COCCOCCNC(=O)COCCOCCNC(=O)CC[C@H](NC(=O)CCCCCCCCCCCCCCCCC(=O)O)C(=O)O)NC(=O)[C@H](CC(N)=O)NC(=O)[C@H](CC(=O)O)NC(=O)[C@H](CC(C)C)NC(=O)[C@@H](NC(=O)[C@@H](NC(=O)[C@H](CO)NC(=O)[C@H](Cc1ccc(O)cc1)NC(=O)[C@H](CC(=O)O)NC(=O)[C@H](CO)NC(=O)[C@@H](NC(=O)[C@H](Cc1ccccc1)NC(=O)[C@@H](NC(=O)CNC(=O)[C@H](CC(=O)O)NC(=O)[C@H](C)NC(=O)[C@@H](N)Cc1c[nH]cn1)[C@@H](C)O)[C@@H](C)CC)[C@@H](C)O)[C@@H](C)CC)C(=O)N[C@@H](CC(N)=O)C(=O)N[C@@H](Cc1c[nH]c2ccccc12)C(=O)N[C@@H](CC(C)C)C(=O)N[C@H](C(=O)N[C@@H](CCC(N)=O)C(=O)N[C@H](C(=O)N[C@@H](CCCCN)C(=O)NCC(=O)N[C@@H](CCCCN)C(=O)N[C@@H](CCCCN)C(=O)O)[C@@H](C)O)[C@@H](C)CC [Compound 32] (H-HADGTFISDYSTILDNK([AEEA-AEEA-γGlu-C18 diacid])AARDFINWLIQTKGKK-OH) |  |  |  | > 100 nM |  |  | 7.0 | 8.3% | 15.0 | 30.8% | 80% | > 10 fold | 77% | 3.2 nM | 84% | 6.5 | 18% |
| CC[C@H](C)[C@H](NC(=O)[C@H](Cc1ccccc1)NC(=O)[C@H](CC(=O)O)NC(=O)[C@H](CCCNC(=N)N)NC(=O)[C@H](C)NC(=O)[C@H](C)NC(=O)[C@H](CC(C)C)NC(=O)[C@H](CCCCNC(=O)COCCOCCNC(=O)COCCOCCNC(=O)CC[C@H](NC(=O)CCCCCCCCCCCCCCCCC(=O)O)C(=O)O)NC(=O)[C@H](CC(=O)O)NC(=O)[C@H](CC(C)C)NC(=O)C(C)(C)NC(=O)[C@@H](NC(=O)[C@H](CO)NC(=O)[C@H](Cc1ccc(O)cc1)NC(=O)[C@H](CC(=O)O)NC(=O)[C@H](CO)NC(=O)[C@@H](NC(=O)[C@H](Cc1ccccc1)NC(=O)[C@@H](NC(=O)CNC(=O)[C@H](CC(=O)O)NC(=O)[C@H](C)NC(=O)[C@@H](N)Cc1c[nH]cn1)[C@@H](C)O)[C@@H](C)CC)[C@@H](C)O)C(=O)N[C@@H](CC(N)=O)C(=O)N[C@@H](Cc1c[nH]c2ccccc12)C(=O)N[C@@H](CC(C)C)C(=O)N[C@H](C(=O)N[C@@H](CCC(N)=O)C(=O)N[C@H](C(=O)N[C@@H](CCCCN)C(=O)NCC(=O)N[C@@H](CCCCN)C(=O)N[C@@H](CCCCN)C(=O)O)[C@@H](C)O)[C@@H](C)CC [Compound 31] | 85% | 79% | 89% | > 100 nM | 16.0 | 43% | 4.9 | 5.8% | 30.6 | 63.0% |  |  |  |  |  |  |  |
